For this experiment, the target named is T1, CSF-1R (Homo sapiens, UniProt P07333).
T1 construct: His-tagged kinase domain of CSF-1R (i.e., amino acids 568-912, GeneBank ID NM_005211); His; made in house; host or cells: baculovirus-infected SF+Express insect cells
T1 sequence (P07333 568-912): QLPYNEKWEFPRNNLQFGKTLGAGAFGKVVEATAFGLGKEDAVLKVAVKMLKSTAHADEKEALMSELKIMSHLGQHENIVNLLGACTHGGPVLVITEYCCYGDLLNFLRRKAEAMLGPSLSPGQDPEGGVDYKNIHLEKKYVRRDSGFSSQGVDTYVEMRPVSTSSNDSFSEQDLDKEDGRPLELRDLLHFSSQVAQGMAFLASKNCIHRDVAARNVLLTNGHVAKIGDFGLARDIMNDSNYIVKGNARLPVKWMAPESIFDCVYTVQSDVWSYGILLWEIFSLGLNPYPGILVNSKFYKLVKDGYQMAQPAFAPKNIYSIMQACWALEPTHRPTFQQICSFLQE
As to the kind of experiment: CSF-1R In Vitro AlphaScreen Assay. Format: biochemical. Particulars: purified His-tagged kinase domain of CSF-1R, pEY substrate, 90 μM ATP. How it is done:
Activity of purified CSF-1R was determined in vitro using an Amplified Luminescent Proximity Homogeneous Assay (ALPHA)(Perkin Elmer), which measures phosphorylation of the CSF-1R substrate, biotinylated poly-glutamine-tyrosine peptide (pEY-HTRF CisBio 61GT0BLD), as described below.
The phosphorylation of the CSF-1R substrate in the presence and absence of the compound of interest was determined. […] Plates were incubated at 25° C. for 18 hours in the dark. Phosphorylated substrate was detected by an EnVision plate reader (Perkin Elmer) 680 nm excitation, 520-620 nm emission. Data was graphed and IC50s calculated using Excel Fit (Microsoft).
(In general: Bead proximity is the source of the signal in Alpha formats.)

For orientation: IC50 means the point on the concentration scale where inhibition reaches its midpoint. A low value points to higher potency. With `NC(=O)c1cnc2cc(F)c(N3CCOCC3)cc2c1Nc1ccc(F)cc1F` [Example 18], the IC50 amounted to 154 nM. On to `COc1cc2c(Nc3cccc(Cl)c3Cl)c(C(N)=O)cnc2cc1N1CCN(C)CC1` [Example 9], for which 23 nM corresponded to half-maximal inhibition (IC50).

Source of the values: patent publication US20090054411A1, “4-ANILINOQUINOLINE-3-CARBOXAMIDES AS CSF-1R KINASE INHIBITORS” (AstraZeneca AB, priority 2006, published 2009).
